Data reported in ChEMBL document CHEMBL5154803, “Spermine-Conjugated Short Proline-Rich Lipopeptides as Broad-Spectrum Intracellular Targeting Antibacterial Agents” (J Med Chem, 2022).
≈ marks a conversion by molar mass, not a printed value. Calls of active or inactive are those of the source. No cut-off for these calls is given here. Where a SMILES comes first, the peptide text is derived from it. The star is where a group is joined. Lauroyl = CCCCCCCCCCCC(=O)*; Decanoyl = CCCCCCCCCC(=O)*; Spermine = NCCCNCCCCNCCCN*

Experiments:
[1] = test system: Staphylococcus aureus; test: Antibacterial activity against MDR-methicillin-resistant Staphylococcus aureus ATCC BAA-44 assessed as reduction in bacterial growth measured after 18 hrs by broth microdilution method; type: functional
[2] = test system: Staphylococcus aureus; test: Synergistic antibacterial activity against MDR-methicillin-resistant Staphylococcus aureus ATCC BAA-44 assessed as neomycin MIC by checkerboard assay; type: functional
[3] = Acute toxicity in BALB/c mouse assessed as effect on locomotor activity at 10 mg/kg, ip measured for 7 days; type: organism-based; details: in vivo, 168 h, time 7 day
[4] = biological target: T1, Bacterial 70S ribosome (Bacteria) (UniProt P0A7V0+P60723+P0AG67+P0A7R5+P0A7R9+P0A7S3+P0A7S9+P0AG59+P0ADZ4+P0A7T3+P0AG63+P0A7T7+P0A7U3+P0A7U7+P68679+P0A7V3+P0A7V8+P0A7W1+P02358+P02359+P0A7W7+P0A7X3+P0A7J3+P0A7J7+P0AA10+P0ADY3+P02413+P0ADY7+P0AG44+P0C018+P0A7K6+P0A7L0+P0A7L3+P0AG48+P61175+P0ADZ0+P60624+P68919+P0A7L8+P0A7M2+P0A7M6+P60422+P0AG51+P0A7N1+P0A7M9+P0A7N4+P0A7N9+P0A7P5+P0A7Q1+Q2EEQ2+P0A7Q6+P60438+P62399+P0AG55+P0A7K2); test: Inhibition of 70S ribosome-mediated protein synthesis in Escherichia coli at 1XMIC incubated for 1 hr by renilla luciferase based luminescence assay; type: subcellular
[5] = test system: Escherichia coli; test: Antibacterial activity against Escherichia coli ATCC 25922 assessed as reduction in bacterial growth measured after 18 hrs by broth microdilution method; type: functional
[6] = test system: Staphylococcus aureus; test: Synergistic antibacterial activity against MDR-methicillin-resistant Staphylococcus aureus ATCC BAA-44 assessed as fold change in ampicillin MIC by checkerboard assay; type: functional
[7] = test system: Cell membrane; test: Disruption of bacterial cell membrane in Escherichia coli ATCC 25922 assessed as proportion of bacteria with intact cell membrane at 1X MIC incubated for 1 hr by PI staining based flow cytometric analysis (reference value: 99.3%); type: subcellular
[8] = test system: Staphylococcus aureus; test: Antibacterial activity against methicillin-resistant Staphylococcus aureus ATCC 33591 assessed as reduction in bacterial growth measured after 18 hrs by broth microdilution method; type: functional
[9] = test system: Staphylococcus aureus; test: Synergistic antibacterial activity against MDR-methicillin-resistant Staphylococcus aureus ATCC BAA-44 assessed as fractional inhibitory concentration index in presence of chloramphenicol by checkerboard assay; type: functional
[10] = test system: Staphylococcus aureus; test: Synergistic antibacterial activity against MDR-methicillin-resistant Staphylococcus aureus ATCC BAA-44 assessed as fold change in neomycin MIC by checkerboard assay; type: functional
[11] = test system: Escherichia coli; test: Antibacterial activity against Escherichia coli ATCC 25922 assessed as reduction in bacterial growth measured after 18 hrs in presence of 10% v/v human serum in MHB by broth microdilution method; type: functional; details: ATCC 25922, Serum
[12] = Cytotoxicity against human THP-1 cells assessed as cell viability at 50 uM by MTT assay; type: toxicity, cell-based; details: read-out: Activity
[13] = test system: Acinetobacter baumannii; test: Antibacterial activity against Acinetobacter baumannii i ATCC 19606 assessed as reduction in bacterial growth measured after 18 hrs by broth microdilution method; type: functional
[14] = test system: Staphylococcus aureus; test: Additive antibacterial activity against MDR-methicillin-resistant Staphylococcus aureus ATCC BAA-44 assessed as gentamicin MIC by checkerboard assay; type: functional
[15] = test system: Staphylococcus aureus; test: Synergistic antibacterial activity against MDR-methicillin-resistant Staphylococcus aureus ATCC BAA-44 assessed as fold change in chloramphenicol MIC by checkerboard assay; type: functional
[16] = test system: Staphylococcus aureus; test: Synergistic antibacterial activity against MDR-methicillin-resistant Staphylococcus aureus ATCC BAA-44 assessed as fractional inhibitory concentration index in presence of neomycin by checkerboard assay; type: functional
[17] = biological target: Bacterial 70S ribosome; test: Binding affinity to Escherichia coli MRE600 70S ribosome assessed as inhibition constant preincubated for 90 mins followed by incubation with Rho-C12-PR-Spn for 90 mins by competitive fluorescence binding assay; type: subcellular
[18] = test system: Staphylococcus aureus; test: Antibacterial activity against Staphylococcus aureus ATCC 25923 assessed as reduction in bacterial growth measured after 18 hrs by broth microdilution method; type: functional
[19] = test system: Escherichia coli; test: Antibacterial activity against Escherichia coli MRE600 assessed as reduction in bacterial growth measured after 18 hrs by broth microdilution method; type: functional
[20] = Cytotoxicity against human THP-1 cells assessed as cell viability at 100 uM by MTT assay; type: toxicity, cell-based; details: read-out: Activity
[21] = test system: Cell membrane; test: Disruption of bacterial cell membrane in Escherichia coli ATCC 25922 assessed as proportion of bacteria with damaged cell membrane at 1X MIC incubated for 1 hr by PI staining based flow cytometric analysis (Rvb =0.7%); type: subcellular
[22] = test system: Staphylococcus aureus; test: Additive antibacterial activity against MDR-methicillin-resistant Staphylococcus aureus ATCC BAA-44 assessed as fold change in rifampicin MIC by checkerboard assay; type: functional
[23] = test system: Staphylococcus aureus; test: Additive antibacterial activity against MDR-methicillin-resistant Staphylococcus aureus ATCC BAA-44 assessed as tetracycline MIC by checkerboard assay; type: functional
[24] = test system: Pseudomonas aeruginosa; test: Antibacterial activity against Pseudomonas aeruginosa ATCC BAA-427 assessed as reduction in bacterial growth measured after 18 hrs by broth microdilution method; type: functional
[25] = test system: Staphylococcus aureus; test: Additive antibacterial activity against MDR-methicillin-resistant Staphylococcus aureus ATCC BAA-44 assessed as fold change in gentamicin MIC by checkerboard assay; type: functional
[26] = Acute toxicity in BALB/c mouse assessed as mouse survival at 10 mg/kg, ip measured for 7 days; type: organism-based; details: in vivo, time 7 day
[27] = test system: Staphylococcus aureus; test: In vivo antibacterial activity against Staphylococcus aureus ATCC 25923 infected in BALB/c mouse model assessed as reduction of bacterial load in spleen at 5 mg/kg, ip administered as single dose measured after 24 hrs by colony counting based analysis (reference value: 6X10^3 CFU); type: functional
[28] = test system: Staphylococcus aureus; test: Additive antibacterial activity against MDR-methicillin-resistant Staphylococcus aureus ATCC BAA-44 assessed as fractional inhibitory concentration index in presence of gentamicin by checkerboard assay; type: functional
[29] = biological target: T1, Bacterial 70S ribosome (Bacteria); test: Inhibition of 70S ribosome-mediated protein synthesis in Escherichia coli at 5XMIC incubated for 1 hr by renilla luciferase based luminescence assay; type: subcellular
[30] = test system: Staphylococcus epidermidis; test: Antibacterial activity against Staphylococcus epidermidis ATCC 12228 assessed as reduction in bacterial growth measured after 18 hrs by broth microdilution method; type: functional
[31] = test system: Escherichia coli; test: Bactericidal activity against Escherichia coli ATCC 25922 assessed as log reduction of bacterial growth at 5XMIC incubated for 2 hrs followed by plating on MHII agar pate for 24 hrs; type: functional; details: time 26 hrs
[32] = test system: Staphylococcus aureus; test: Synergistic antibacterial activity against MDR-methicillin-resistant Staphylococcus aureus ATCC BAA-44 assessed as fractional inhibitory concentration index in presence of ampicillin by checkerboard assay; type: functional
[33] = test system: Staphylococcus aureus; test: Additive antibacterial activity against MDR-methicillin-resistant Staphylococcus aureus ATCC BAA-44 assessed as fractional inhibitory concentration index in presence of tetracycline by checkerboard assay; type: functional
[34] = test system: Cell membrane; test: Disruption of bacterial cell membrane in Escherichia coli ATCC 25922 assessed as proportion of bacteria with damaged cell membrane at 5X MIC incubated for 1 hr by PI staining based flow cytometric analysis (reference value: 0.7%); type: subcellular

Row | Compound | MIC [1] | MIC [2] | Activity [3] | inhibition [4] | MIC [5] | fold change (FC) [6] | Activity [7] | MIC [8] | fractional inhibitory concentration index (FICI) [9] | fold change (FC) [10] | MIC [11] | viability at 50 µM [12] | MIC [13] | MIC [14] | fold change (FC) [15] | fractional inhibitory concentration index (FICI) [16] | Ki [17] | MIC [18] | MIC [19] | viability at 100 µM [20] | further results
1 | CCCCCCCCCC(=O)N1CCC[C@H]1C(=O)N[C@@H](CCCNC(=N)N)C(=O)N1CCC[C@H]1C(=O)N[C@@H](CCCNC(=N)N)C(=O)N1CCC[C@H]1C(=O)N1CCC[C@H]1C(=O)N[C@@H](CCCNC(=N)N)C(=O)NCCCNCCCCNCCCN (Decanoyl-PRPRPPR-Spermine) | 3.1 µM (≈ 3.76 µg/mL) | 7.81 µg/mL | Non-Toxic | Active | 3.1 µM (≈ 3.76 µg/mL) | 2 | 93.9% | 3.1 µM (≈ 3.76 µg/mL) | 2 | 1.6 | 6.2 µM | 94% | 6.2 µM (≈ 7.52 µg/mL) | 1.25 µg/mL | 1 | 0.312 | 33.8 nM | 3.1 µM (≈ 3.76 µg/mL) | 3.1 µM (≈ 3.76 µg/mL) | 80% | Activity [21]: 6.11%; fold change (FC) [22]: 2; MIC [23]: 31.2 µg/mL; MIC [24]: 6.2 µM (≈ 7.52 µg/mL); fold change (FC) [25]: 2; survival at 168 h [26]: 100%; Activity [27]: <4 10^2CFU; fractional inhibitory concentration index (FICI) [28]: 0.745; inhibition [29]: Active; MIC [30]: 1.5 µM (≈ 1.82 µg/mL); Activity [31]: >3 log10CFU/ml; fractional inhibitory concentration index (FICI) [32]: 0.313; fractional inhibitory concentration index (FICI) [33]: 0.625; Activity [34]: 9.56%
2 | CCCCCCCCCCCC(=O)N1CCC[C@H]1C(=O)N[C@@H](CCCNC(=N)N)C(=O)N1CCC[C@H]1C(=O)N[C@@H](CCCNC(=N)N)C(=O)N1CCC[C@H]1C(=O)N1CCC[C@H]1C(=O)N[C@@H](CCCNC(=N)N)C(=O)NCCCNCCCCNCCCN (Lauroyl-PRPRPPR-Spermine) | 1.5 µM (≈ 1.86 µg/mL) | 7.81 µg/mL | Non-Toxic | Active | 3.1 µM (≈ 3.85 µg/mL) | 4 | 92.9% | 1.5 µM (≈ 1.86 µg/mL) | 0.5 | 1.6 | 3.1 µM | 79% | 6.2 µM (≈ 7.7 µg/mL) | 1.25 µg/mL | 4 | 0.312 | 21.7 nM | 1.5 µM (≈ 1.86 µg/mL) | 3.1 µM (≈ 3.85 µg/mL) | 65% | Activity [21]: 7.09%; fold change (FC) [22]: 2; MIC [23]: 31.2 µg/mL; MIC [24]: 6.2 µM (≈ 7.7 µg/mL); fold change (FC) [25]: 1; survival at 168 h [26]: 100%; Activity [27]: <4 10^2CFU; fractional inhibitory concentration index (FICI) [28]: 0.745; inhibition [29]: Active; MIC [30]: 1.5 µM (≈ 1.86 µg/mL); Activity [31]: >3 log10CFU/ml; fractional inhibitory concentration index (FICI) [32]: 0.28; fractional inhibitory concentration index (FICI) [33]: 0.625; Activity [34]: 27.3%
